Several values for one entry are separate records, joined by “and”; a condition that tells them apart may be missing. Equal values may be shown once. Read-outs that look alike come from different tables or passages of the source. Values belong to the molecule of their own block, whether it stands above or below them.
Tests used:
Assay type in all cases: cell-based
[1] = target: T1, cIAP1 (BIRC2) (Homo sapiens, UniProt Q13490); assay: diaPASEF quantitative proteomics in MM.1S cells: cIAP1 (BIRC2); conditions: 3 h; for cIAP1 level in global proteomics (in words): 100 nM, diaPASEF
T1 construct: endogenous in cells; host or cells: MM.1S
T1 sequence (Q13490 whole entry): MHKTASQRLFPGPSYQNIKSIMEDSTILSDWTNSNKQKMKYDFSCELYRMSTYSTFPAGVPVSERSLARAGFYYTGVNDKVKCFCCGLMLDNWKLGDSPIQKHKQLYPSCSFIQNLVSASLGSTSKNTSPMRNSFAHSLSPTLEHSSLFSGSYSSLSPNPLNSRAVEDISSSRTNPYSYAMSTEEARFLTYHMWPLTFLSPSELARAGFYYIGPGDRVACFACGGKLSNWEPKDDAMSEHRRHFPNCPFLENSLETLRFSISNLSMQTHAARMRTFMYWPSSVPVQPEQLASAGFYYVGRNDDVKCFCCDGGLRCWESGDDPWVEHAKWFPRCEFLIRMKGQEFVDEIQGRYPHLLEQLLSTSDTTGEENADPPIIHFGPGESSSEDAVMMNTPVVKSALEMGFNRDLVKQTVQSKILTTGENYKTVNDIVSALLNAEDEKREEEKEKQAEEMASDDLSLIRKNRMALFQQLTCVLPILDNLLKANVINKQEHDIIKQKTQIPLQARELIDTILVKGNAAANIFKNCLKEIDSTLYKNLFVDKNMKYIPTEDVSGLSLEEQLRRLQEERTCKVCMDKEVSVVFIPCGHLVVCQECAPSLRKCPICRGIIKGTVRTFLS
Procedure: To analyze the proteome-wide degradation selectivity of hetero-PROTACs 9, 25, and 27, a diaPASEF-based mass spectrometry approach was employed.[54] MM.1S cells were treated with 100 nM PROTACs for 3 h. […] Accordingly, global proteomic plots show the mathematically imputed levels of IAP proteins in treatment groups if the corresponding IAP was detected in the control treatment (see also Experimental Section).
MM1s cells were treated with DMSO or 0.1 μM of compound for 3 h. The cells were harvested by centrifugation and washed with phosphate-buffered saline before snap-freezing in liquid nitrogen. The cells were lysed by addition of lysis buffer (8 M urea, 50 mM NaCl, 50 mM 4-(2-hydroxyethyl)-1-piperazine-ethanesulfonic acid (EPPS) pH 8.5, protease, and phosphatase inhibitors) and homogenization by bead beating (BioSpec) for three repeats of 30 s at 2400. Bradford assay was used to determine the final protein concentration in the clarified cell lysate. 50 μg of protein for each sample was reduced, alkylated, and precipitated using methanol/chloroform as previously described,[64] and the resulting washed precipitated protein was allowed to air dry. The precipitated protein was resuspended in 4 M urea, 50 mM HEPES pH 7.4, followed by dilution to 1 M urea with the addition of 200 mM EPPS, pH 8. Proteins were first digested with LysC (1:50; enzyme/protein) for 12 h at RT. The LysC digestion was diluted to 0.5 M urea with 200 mM EPPS pH 8, followed by digestion with trypsin (1:50; enzyme/protein) for 6 h at 37 °C. Sample digests were acidified with formic acid to a pH of 2–3 prior to desalting using C18 solid-phase extraction plates (SOLA, Thermo Fisher Scientific). Desalted peptides were dried in a vacuum centrifuge and reconstituted in 0.1% formic acid for LC–MS analysis.
Data were collected using a TimsTOF Pro2 (Bruker Daltonics, Bremen, Germany) coupled to a nanoElute LC pump (Bruker Daltonics, Bremen, Germany) via a CaptiveSpray nanoelectrospray source. Peptides were separated on a reversed-phase C18 column (25 cm × 75 μm ID, 1.6 μM, IonOpticks, Australia) containing an integrated captive spray emitter. Peptides were separated using a 50 min gradient of 2–30% buffer B (acetonitrile in 0.1% formic acid) with a flow rate of 250 nL/min and column temperature maintained at 50 °C.
Data-Dependent Acquisition (DDA) was performed in the Parallel Accumulation-Serial Fragmentation (PASEF) mode to determine effective ion mobility windows for downstream diaPASEF data collection.[54] The diaPASEF parameters included 100% duty cycle using accumulation and ramp times of 50 ms each, 1 TIMS-MS scan, and 10 PASEF ramps per acquisition cycle. The TIMS-MS survey scan was acquired between 100–1700 m/z and 1/K0 of 0.7–1.3 V × s/cm^2. Precursors with 1–5 charges were selected, and those that reached an intensity threshold of 20,000 arbitrary units were actively excluded for 0.4 min. The quadrupole isolation width was set to 2 m/z for m/z < 700 and 3 m/z for m/z > 800, with the m/z between 700 and 800 m/z being interpolated linearly. The TIMS elution voltages were calibrated linearly with three points (Agilent ESI-L Tuning Mix Ions; 622, 922, 1222 m/z) to determine the reduced ion mobility coefficients (1/K0). To perform diaPASEF, the precursor distribution in the DDA m/z-ion mobility plane was used to design an acquisition scheme for DIA data collection, which included two windows in each 50 ms diaPASEF scan. […]

[2] = test system: IAPs (cIAP1, cIAP2, XIAP); assay: Immunoblotting of IAPs in MM.1S cells, overall degradation profile, time course and washout; conditions: for time to complete degradation of cIAP1, cIAP2 and XIAP: 0.1 μM, time course; for IAP degradation profile (in words): 16 h, western blot, concentration (10 nM to 1 μM)
Procedure: Next, we examined the persistence of IAP degradation in MM.1S cells after a single exposure to 1 μM of 9 and subsequent removal of the compound. […] The reliance on CRL2^VHL was assessed with a neddylation inhibitor MLN4924, which blocks the activity of CRLs (Figure S13A).

[3] = test system: SUDHL6; assay: CellTiter-Glo cell viability assay, SUDHL6; conditions: Homo sapiens
Procedure: (§1) As TNF-α and related signaling cascades represent crucial factors for the single-agent activity of IAP-targeting compounds,[29],[38],[39],[55] the viability inhibition of sensitive cell lines was evaluated in the presence and absence of this inflammatory stimulus. […] These effects were independent of IAP baseline levels (Figure S16), which is in agreement with the previous studies of IAP antagonists.
(§2) Cells were seeded in 384-well plates with respective treatments, and plates were incubated at 37 °C for 96 h. Viability assays were performed with or without the addition of TNF-α at 1 ng/mL. The cell viability readout was measured using the CellTiter-Glo Luminescent Cell Viability Assay (Promega, Madison, USA) and measured with a Synergy LX Multi-Mode plate reader (BioTek, Vermont, USA). All conditions were normalized to the DMSO-treated control. Data represents the mean ± SD of biological triplicates.

[4] = test system: MOLM13; assay: CellTiter-Glo cell viability assay, MOLM13; conditions: Homo sapiens
Procedure: as §1, §2

[5] = test system: DB; assay: CellTiter-Glo cell viability assay, DB; conditions: Homo sapiens
Procedure: as §1, §2

[6] = SI csv, head prints only the cell line, no quantity or unit, values parallel Table 1/S8, read-out: DB

Compound: CN[C@@H](C)C(=O)N[C@H](C(=O)N1C[C@@H](Oc2cccc(OCCOCCCCCCOCCCCCCNc3cccc4c3C(=O)N(C3CCC(=O)NC3=O)C4=O)c2)C[C@H]1C(=O)N[C@@H]1CCCc2ccccc21)C1CCCCC1 (stereo partly drawn) [PROTAC 25, (2S,4S)-1-((S)-2-Cyclohexyl-2-((S)-2-(methylamino)propanamido)acetyl)-4-(3-(2-((6-((6-((2-(2,6-dioxopiperidin-3-yl)-1,3-dioxoisoindolin-4-yl)amino)hexyl)oxy)hexyl)oxy)ethoxy)phenoxy)-N-((R)-1,2,3,4-tetrahydronaphthalen-1-yl)pyrrolidine-2-carboxamide]
logFC BIRC2 ([1]; 0.1 μM, log2 fold change compound vs CTRLs (limma)): -2.352
cIAP1 level in global proteomics (in words) [1]: below the detection level
time to complete degradation of cIAP1, cIAP2 and XIAP [2]: ≤ 3 h
IAP degradation profile (in words) [2]: pronounced pan-IAP depletion and Complete cIAP1 and XIAP depletion occurred already at 10 nM and 0.1 μM concentration was needed for the complete depletion of all IAPs
IC50 ([3]; SU-DHL-6, read-out: SUDHL6): 14 nM
IC50 ([4]; MOLM-13, read-out: MOLM13): 52 nM
IC50 ([5]; DB, read-out: DB): 160 nM

Compound: CN[C@@H](C)C(=O)N[C@H](C(=O)N1C[C@@H](Oc2cccc(OCCCCC(=O)N[C@H](C(=O)N3C[C@H](O)C[C@H]3C(=O)N[C@@H](C)c3ccc(-c4scnc4C)cc3)C(C)(C)C)c2)C[C@H]1C(=O)N[C@@H]1CCCc2ccccc21)C1CCCCC1 [PROTAC 9, (2S,4S)-1-((S)-2-Cyclohexyl-2-((S)-2-(methylamino)propanamido)acetyl)-4-(3-((5-(((S)-1-((2S,4R)-4-hydroxy-2-(((S)-1-(4-(4-methylthiazol-5-yl)phenyl)ethyl)carbamoyl)pyrrolidin-1-yl)-3,3-dimethyl-1-oxobutan-2-yl)amino)-5-oxopentyl)oxy)phenoxy)-N-((R)-1,2,3,4-tetrahydronaphthalen-1-yl)pyrrolidine-2-carboxamide]
cIAP1 level in global proteomics (in words) [1]: below the detection level
time to complete degradation of cIAP1, cIAP2 and XIAP [2]: ≤ 3 h
IAP degradation profile (in words) [2]: induces cIAP1, cIAP2, XIAP, and VHL30 degradation in a dose-dependent manner
persistence of IAP degradation after washout (in words) ([2]; single exposure to 1 μM for 16 h, then compound removal): nearly full and stable pan-degradation of IAPs up to 72 h
IC50 ([3]; SU-DHL-6, DLBCL cell line, 96 h, TNFα-challenged, read-out: IC50 cell viability SUDHL6): 1.6 nM
IC50 ([4]; MOLM-13, AML cell line, 96 h, TNFα-challenged, read-out: IC50 cell viability MOLM13): 2.1 nM
IC50 ([5]; DB, DLBCL cell line, 96 h, TNFα-challenged, read-out: IC50 cell viability DB): 460 nM
IC50 [5, 6]: 510 nM

cIAP1 level in global proteomics (in words) [1]: no impact
Compound: CN[C@@H](C)C(=O)N[C@H](C(=O)N1C[C@@H](Oc2cccc(OCCCCCCOCCCCCCOCCCCCCNc3cccc4c3C(=O)N(C3CCC(=O)NC3=O)C4=O)c2)C[C@H]1C(=O)N[C@@H]1CCCc2ccccc21)C1CCCCC1 (stereo partly drawn) [PROTAC 27, (2S,4S)-1-((S)-2-Cyclohexyl-2-((S)-2-(methylamino)propanamido)acetyl)-4-(3-((6-((6-((6-((2-(2,6-dioxopiperidin-3-yl)-1,3-dioxoisoindolin-4-yl)amino)hexyl)oxy)hexyl)oxy)hexyl)oxy)phenoxy)-N-((R)-1,2,3,4-tetrahydronaphthalen-1-yl)pyrrolidine-2-carboxamide]
IAP degradation profile (in words) [2]: isoform-selective XIAP degradation

Compound: CN[C@@H](C)C(=O)N[C@@H](C(=O)N1CCC[C@H]1C(=O)N[C@@H]1c2ccccc2C[C@@H]1OCC#CC#CCO[C@H]1Cc2ccccc2[C@H]1NC(=O)[C@@H]1CCCN1C(=O)[C@H](NC(=O)[C@H](C)NC)C1CCCCC1)C1CCCCC1 [AZD5582, reference compound]
cIAP1 level in global proteomics (in words) [1]: depleted cIAP1 below the detection level
IAP degradation profile (in words) [2]: potent cIAP autodegradation
IC50 ([3]; SU-DHL-6, SI csv, head prints only the cell line, no quantity or unit, values parallel Table 1/S8, read-out: SUDHL6): 1.5 nM
IC50 ([4]; MOLM-13, SI csv, head prints only the cell line, no quantity or unit, values parallel Table 1/S8, read-out: MOLM13): 2 nM
IC50 [5, 6]: 73 nM

Source: paper PMC10108347, “Heterobifunctional Ligase Recruiters Enable pan-Degradation of Inhibitor of Apoptosis Proteins” (Journal of Medicinal Chemistry, 2023)
